{"source": "patent US20090176839A1", "about": "“FORMULATIONS OF 3-(6-(1-(2,2-DIFLUOROBENZO[D][1,3]DIOXOL-5-YL) CYCLOPROPANECARBOXAMIDO)-3-METHYLPYRIDIN-2-YL)BENZOIC ACID” (priority 2007, published 2009)", "experiment": "Tissue distribution in male rats after single oral dose of 75 mg/kg", "type": "in vivo, male Sprague Dawley rats", "details": "75 mg/kg oral; for Kp at 1 h / Kp at 4 hr / Kp at 12 hr / Kp / Kp at 48 hr: po, 75 mg/kg", "protocol": "Following a single oral administration of unlabelled Compound 1 to rats, the highest distribution was to the liver followed by lung, pancreas and brain with tissue-to-plasma ratios of 0.73, 0.19, 0.13 and 0.02, respectively, at one hour following oral administration of 75 mg/kg. Elimination of Compound 1 was nearly complete from all tissues 48 hours after administration (concentrations less than 1 μg/mL). Although the distribution to the lung is low relative to plasma, the concentrations measured in lung at low and moderate doses are predicted to be efficacious.", "key": {"[1]": {"details": "Sprague Dawley, rat, male rats, Brain"}, "[2]": {"details": "Sprague Dawley, rat, male rats, Liver"}, "[3]": {"details": "Sprague Dawley, rat, male rats, Lung"}, "[4]": {"details": "Sprague Dawley, rat, male rats, Pancreas"}, "[5]": {"details": "Sprague Dawley, rat, male rats, Plasma"}}, "note": "Read-outs that look alike come from different tables or passages of the source.", "data": [{"smiles": "Cc1ccc(NC(=O)C2(c3ccc4c(c3)OC(F)(F)O4)CC2)nc1-c1cccc(C(=O)O)c1", "note": "[Compound 1, 3-(6-(1-(2,2-difluorobenzo[d][1,3]dioxol-5-yl)cyclopropanecarboxamido)-3-methylpyridin-2-yl)benzoic acid]", "values": [{"measurement": "Cmax", "setting": "[1]", "value": 957, "unit": "ng/mL"}, {"measurement": "Tmax", "setting": "[1]", "value": 4, "unit": "h"}, {"measurement": "AUC", "setting": "Sprague Dawley, rat, male rats, Brain, footnote a: AUCall", "value": 9.3, "unit": "µg·h/mL"}, {"measurement": "concentration at 12 hr", "setting": "Sprague Dawley, rat, male rats, Brain, read-out: Clast", "value": 546, "unit": "ng/mL"}, {"measurement": "AUC(0-inf)", "setting": "[2]", "value": 885, "unit": "µg·h/mL"}, {"measurement": "Cmax", "setting": "[2]", "value": 38100, "unit": "ng/mL"}, {"measurement": "Tmax", "setting": "[2]", "value": 4, "unit": "h"}, {"measurement": "half-life", "setting": "[2]", "value": 8.06, "unit": "h"}, {"measurement": "concentration at 48 hr", "setting": "Sprague Dawley, rat, male rats, Liver, read-out: Clast", "value": 965, "unit": "ng/mL"}, {"measurement": "AUC(0-inf)", "setting": "[3]", "value": 187, "unit": "µg·h/mL"}, {"measurement": "Cmax", "setting": "[3]", "value": 9140, "unit": "ng/mL"}, {"measurement": "Tmax", "setting": "[3]", "value": 1, "unit": "h"}, {"measurement": "half-life", "setting": "[3]", "value": 7.79, "unit": "h"}, {"measurement": "concentration at 48 hr", "setting": "Sprague Dawley, rat, male rats, Lung, read-out: Clast", "value": 189, "unit": "ng/mL"}, {"measurement": "AUC(0-inf)", "setting": "[4]", "value": 132, "unit": "µg·h/mL"}, {"measurement": "Cmax", "setting": "[4]", "value": 6830, "unit": "ng/mL"}, {"measurement": "Tmax", "setting": "[4]", "value": 4, "unit": "h"}, {"measurement": "half-life", "setting": "[4]", "value": 6.87, "unit": "h"}, {"measurement": "concentration at 48 hr", "setting": "Sprague Dawley, rat, male rats, Pancreas, read-out: Clast", "value": 86, "unit": "ng/mL"}, {"measurement": "AUC(0-inf)", "setting": "[5]", "value": 980, "unit": "µg·h/mL"}, {"measurement": "Cmax", "setting": "[5]", "value": 59100, "unit": "ng/mL"}, {"measurement": "Tmax", "setting": "[5]", "value": 4, "unit": "h"}, {"measurement": "half-life", "setting": "[5]", "value": 6.15, "unit": "h"}, {"measurement": "concentration at 48 hr", "setting": "Sprague Dawley, rat, male rats, Plasma, read-out: Clast", "value": 542, "unit": "ng/mL"}, {"measurement": "Tissue Concentrations, Brain", "setting": "male rats, 1 hr", "value": "0.93 μg/mL or μg/g"}, {"measurement": "Tissue Concentrations, Liver", "setting": "male rats, 1 hr", "value": "34.7 μg/mL or μg/g"}, {"measurement": "Tissue Concentrations, Lung", "setting": "male rats, 1 hr", "value": "9.14 μg/mL or μg/g"}, {"measurement": "Tissue Concentrations, Pancreas", "setting": "male rats, 1 hr", "value": "6.03 μg/mL or μg/g"}, {"measurement": "Tissue Concentrations, Plasma", "setting": "male rats, 1 hr", "value": "47.3 μg/mL or μg/g"}, {"measurement": "Tissue Concentrations, Brain", "setting": "male rats, 4 hr", "value": "0.96 μg/mL or μg/g"}, {"measurement": "Tissue Concentrations, Liver", "setting": "male rats, 4 hr", "value": "38.1 μg/mL or μg/g"}, {"measurement": "Tissue Concentrations, Lung", "setting": "male rats, 4 hr", "value": "8.99 μg/mL or μg/g"}, {"measurement": "Tissue Concentrations, Pancreas", "setting": "male rats, 4 hr", "value": "6.83 μg/mL or μg/g"}, {"measurement": "Tissue Concentrations, Plasma", "setting": "male rats, 4 hr", "value": "59.1 μg/mL or μg/g"}, {"measurement": "Tissue Concentrations, Brain", "setting": "male rats, 12 hr", "value": "0.55 μg/mL or μg/g"}, {"measurement": "Tissue Concentrations, Liver", "setting": "male rats, 12 hr", "value": "26.3 μg/mL or μg/g"}, {"measurement": "Tissue Concentrations, Lung", "setting": "male rats, 12 hr", "value": "5.17 μg/mL or μg/g"}, {"measurement": "Tissue Concentrations, Pancreas", "setting": "male rats, 12 hr", "value": "3.65 μg/mL or μg/g"}, {"measurement": "Tissue Concentrations, Plasma", "setting": "male rats, 12 hr", "value": "24.8 μg/mL or μg/g"}, {"measurement": "Tissue Concentrations, Brain", "setting": "male rats, 48 hr", "value": "BLQ"}, {"measurement": "Tissue Concentrations, Liver", "setting": "male rats, 48 hr", "value": "0.97 μg/mL or μg/g"}, {"measurement": "Tissue Concentrations, Lung", "setting": "male rats, 48 hr", "value": "0.19 μg/mL or μg/g"}, {"measurement": "Tissue Concentrations, Pancreas", "setting": "male rats, 48 hr", "value": "0.09 μg/mL or μg/g"}, {"measurement": "Tissue Concentrations, Plasma", "setting": "male rats, 48 hr", "value": "0.54 μg/mL or μg/g"}, {"measurement": "tlast", "setting": "male rats, Brain", "value": 12, "unit": "h"}, {"measurement": "tlast", "setting": "male rats, Liver", "value": 48, "unit": "h"}, {"measurement": "tlast", "setting": "male rats, Lung", "value": 48, "unit": "h"}, {"measurement": "tlast", "setting": "male rats, Pancreas", "value": 48, "unit": "h"}, {"measurement": "tlast", "setting": "male rats, Plasma", "value": 48, "unit": "h"}, {"measurement": "concentration at 48 h", "setting": "male, Sprague Dawley, rat, all tissues (liver, lung, pancreas, brain), rats, 48 hours after administration, read-out: concentrations in all tissues", "value": "< 1000", "unit": "ng/mL"}, {"measurement": "Kp at 1 h", "setting": "male, Sprague Dawley, rat, brain, male rats, 1 hr, read-out: Tissue/Plasma Ratio, Brain", "value": 0.02}, {"measurement": "Kp at 4 hr", "setting": "male, Sprague Dawley, rat, brain, male rats, 4 hr, read-out: Tissue/Plasma Ratio, Brain", "value": 0.02}, {"measurement": "Kp at 12 hr", "setting": "male, Sprague Dawley, rat, brain, male rats, 12 hr, read-out: Tissue/Plasma Ratio, Brain", "value": 0.02}, {"measurement": "Kp", "setting": "male, Sprague Dawley, rat, brain, male rats, Brain, read-out: Cmax Ratio (Tissue/Plasma)", "value": 0.02}, {"measurement": "Kp", "setting": "male, Sprague Dawley, rat, brain, rats, 1 to 48 hours after administration, read-out: tissue-to-plasma concentration ratios, brain", "value": 0.02}, {"measurement": "Kp at 1 h", "setting": "male, Sprague Dawley, rat, liver, male rats, 1 hr, read-out: Tissue/Plasma Ratio, Liver", "value": 0.73}, {"measurement": "Kp at 4 hr", "setting": "male, Sprague Dawley, rat, liver, male rats, 4 hr, read-out: Tissue/Plasma Ratio, Liver", "value": 0.64}, {"measurement": "Kp at 12 hr", "setting": "male, Sprague Dawley, rat, liver, male rats, 12 hr, read-out: Tissue/Plasma Ratio, Liver", "value": 1.06}, {"measurement": "Kp at 48 hr", "setting": "male, Sprague Dawley, rat, liver, male rats, 48 hr, read-out: Tissue/Plasma Ratio, Liver", "value": 1.78}, {"measurement": "Kp", "setting": "male, Sprague Dawley, rat, liver, male rats, Liver, read-out: Cmax Ratio (Tissue/Plasma)", "value": 0.64}, {"measurement": "Kp", "setting": "male, Sprague Dawley, rat, liver, rats, 1 to 48 hours after administration, read-out: tissue-to-plasma concentration ratios, liver", "value": "0.7 to 1.8"}, {"measurement": "Kp at 1 h", "setting": "male, Sprague Dawley, rat, lung, male rats, 1 hr, read-out: Tissue/Plasma Ratio, Lung", "value": 0.19}, {"measurement": "Kp at 4 hr", "setting": "male, Sprague Dawley, rat, lung, male rats, 4 hr, read-out: Tissue/Plasma Ratio, Lung", "value": 0.15}, {"measurement": "Kp at 12 hr", "setting": "male, Sprague Dawley, rat, lung, male rats, 12 hr, read-out: Tissue/Plasma Ratio, Lung", "value": 0.21}, {"measurement": "Kp at 48 hr", "setting": "male, Sprague Dawley, rat, lung, male rats, 48 hr, read-out: Tissue/Plasma Ratio, Lung", "value": 0.35}, {"measurement": "Kp", "setting": "male, Sprague Dawley, rat, lung, male rats, Lung, read-out: Cmax Ratio (Tissue/Plasma)", "value": 0.15}, {"measurement": "Kp", "setting": "male, Sprague Dawley, rat, lung, rats, 1 to 48 hours after administration, read-out: tissue-to-plasma concentration ratios, lung", "value": "0.15 to 0.35"}, {"measurement": "Kp at 1 h", "setting": "male, Sprague Dawley, rat, pancreas, male rats, 1 hr, read-out: Tissue/Plasma Ratio, Pancreas", "value": 0.13}, {"measurement": "Kp at 4 hr", "setting": "male, Sprague Dawley, rat, pancreas, male rats, 4 hr, read-out: Tissue/Plasma Ratio, Pancreas", "value": 0.12}, {"measurement": "Kp at 12 hr", "setting": "male, Sprague Dawley, rat, pancreas, male rats, 12 hr, read-out: Tissue/Plasma Ratio, Pancreas", "value": 0.15}, {"measurement": "Kp at 48 hr", "setting": "male, Sprague Dawley, rat, pancreas, male rats, 48 hr, read-out: Tissue/Plasma Ratio, Pancreas", "value": 0.15}, {"measurement": "Kp", "setting": "male, Sprague Dawley, rat, pancreas, male rats, Pancreas, read-out: Cmax Ratio (Tissue/Plasma)", "value": 0.12}, {"measurement": "Kp", "setting": "male, Sprague Dawley, rat, pancreas, rats, 1 to 48 hours after administration, read-out: tissue-to-plasma concentration ratios, pancreas", "value": "0.12 to 0.15"}]}]}
